Patent US6942874B2, “Nucleotide compounds that block the bitter taste of oral compositions” (Linguagen Corp., priority 2001, dated 2005)

Test system: transducin
Test: [35S] GTPγS binding assay: transducin activation by bitter-stimulated taste membranes
Type: biochemical, bovine
Description: Since G proteins have an intrinsic GTPase activity, which terminates the activation cycle, a radioactive nonhydrolyzable analogue of GTR such as [^35S] GTPγS or [^3H] GppNHp must be used. To test for the inhibitory activity of nucleotide compounds, several modifications of the standard [^35S] GTPγS binding assay were made to efficiently measure activation by bitter responsive receptors that couple to gustducin or transducin ([…] et al., in preparation). To maximize the bitter dependent change in radiolabel uptake GDP:GTPγS ratios, buffer composition, and specific activity of the [^35S] GTPγS were adjusted. […] Radionucleotide bound to transducin can be measured by filter binding followed by washing to remove unbound label (Asano et al., 1984 Biochemistry 23:5460-5467). The final concentrations in the [^35S] GTPγS binding assay mix are 10 mM HEPES pH 7.5, 5 mM MgCl2, 50 mM NaCl, 1 mM dithiolthreitol, 10 μM GDP, 1 μM [^35S] GTPγS (0.1 μCi/sample), 0.5 μg/0.05 ml transducin heterotrimer. A 2× stock of the above mixture is added to the bitter compound. Reactions are started by addition of 5 μg/0.05 ml bovine circumvallate membranes and the sample volume is adjusted to […] with water. Samples are incubated at room temperature (25±2° C. for 2 hours). Long incubation times are necessary due to the low density of receptors in the membranes. Similar results are obtained with high dilutions of rhodopsin. Samples are then filtered through BA-85 nitrocellulose filters and washed 3 times with 3 ml of 50 mM Tris-HCl pH 7.5, 4 mM MgCl2, and 0.1 M NaCl. Filters are dried, placed in scintillation fluid and the radioactivity is determined by scintillation counting. Experiments are performed in triplicate with several concentrations of the tastant of interest. Controls include: (i) a rhodopsin positive control, (ii) a no tastant negative control and (iii) a no membrane control +/-tastants.

Compound: CC[N+](CC)(CC(=O)Nc1c(C)cccc1C)Cc1ccccc1 [denatonium]
- [35S] GTPγS radiolabel binding to transducin (10 mM, with circumvallate membranes, vs membranes alone, Student's t-test, FIG. 1A): increased radiolabel binding
- activation of transducin relative to maximal rhodopsin stimulated [35S] GTPγS binding (denatonium 10 mM, with bovine circumvallate membranes, FIG. 1A): ~40%
- concentration dependence of transducin activation (in the presence of circumvallate membranes, FIG. 1B): concentration dependent activation of transducin
